Laboratory results reported in patent publication US20240166596A1, “SULFAMOYL BENZENE DERIVATIVES AND USES THEREOF” (AphioTx Inc., priority 2021, published 2024).

What was measured:
[1] = target: T1, rPanx1 (Rattus norvegicus Pannexin-1) expressed in 293T cells (Rattus norvegicus, UniProt P60570); test: Whole-cell patch-clamp of Panx1 currents in transfected 293T cells; assay type: cell-based, Homo sapiens; conditions: voltage ramp -80 to +80 mV, various doses
T1 construct: expressed in transfected cells; host or cells: Human embryonic kidney-293T cells (ATCC), transient Lipofectamine 2000 transfection
T1 sequence (P60570 whole entry): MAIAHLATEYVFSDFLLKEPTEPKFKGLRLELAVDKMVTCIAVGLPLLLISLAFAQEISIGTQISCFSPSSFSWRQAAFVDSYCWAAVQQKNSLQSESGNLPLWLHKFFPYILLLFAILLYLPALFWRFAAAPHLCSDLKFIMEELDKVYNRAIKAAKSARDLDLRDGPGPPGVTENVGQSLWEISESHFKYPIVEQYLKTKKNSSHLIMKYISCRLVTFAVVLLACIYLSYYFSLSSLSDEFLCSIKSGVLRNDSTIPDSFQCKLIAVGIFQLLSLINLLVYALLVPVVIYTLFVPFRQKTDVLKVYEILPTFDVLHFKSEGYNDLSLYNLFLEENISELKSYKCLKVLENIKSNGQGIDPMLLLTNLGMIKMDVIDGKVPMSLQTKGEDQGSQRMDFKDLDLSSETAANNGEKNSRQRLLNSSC
Procedure: To further compare the effects of probenecid, Compounds 1 and 5 on Pannexin-1 channels […] Panx-1 was expressed in embryonic kidney-293T cells (293T) and channel activity was assessed at various doses of each compound.
Rattus norvegicus Pannexin-1 (rPanx1) complementary DNA (cDNA) was cloned between BamHI and SalI sites in a pRK5 expression vector (pRK5-rPanx1). Enhanced green fluorescent protein (EGFP) plasmid (pEGFP-C1) was commercially purchased (addgene).
Human embryonic kidney-293T cells (293T) were purchased from ATCC and routinely maintained in the laboratory. Adherent 293T cells were grown in Dulbecco's modified Eagle's medium (Thermo Fisher) supplemented with 10% fetal bovine serum (Thermo Fisher) and 1% penicillin-streptomycin (10,000 U/mL; Thermo Fisher) at 37° C. in a 5% CO2 humidified growth incubator. 293T cells between the passages 6-20 were used for experiments. For patch-clamp recordings, 293T cells reaching 40-60% confluency on 35 mm culture plates were transiently transfected using Lipofectamine 2000 (Thermo Fisher) 36-48 hours before experiments, using the manufacturer's protocol. 293T cells were transfected with 2.5 μg pRK5-rPanx1 and 0.5 μg pEGFP-C1 cDNAs at a mixed ratio of 5:1 to identify positively transfected cells.
On the day of experiments, transiently transfected 293T cells overexpressing rPanx1 and EGFP cDNAs were seeded onto poly-d-lysine coated glass coverslips at least 2 hours before recordings. […] Data was acquired using Clampex (v.10) software and an Axon Digidata 1550A digitizer (Axon Instruments) at 10 kHz, with currents analyzed offline in Clampfit software (v.10.7). […]
293T cells were voltage clamped at −60 mV in whole-cell configuration and exposed to a 300 ms voltage ramp (−80 to +80 mV) before stepping back to −60 mV to record rPanx1 voltage-sensitive currents. Baseline currents were first measured in extracellular solution before perfusion of drug compounds in incrementally increasing concentrations. […]

C57BL/6J mice [2] = test: Naloxone-precipitated morphine withdrawal, composite withdrawal score; assay type: in vivo; conditions: for Withdrawal behaviors: 60 minutes prior to naloxone
Procedure: Adult male C57BL/6J (7-9 weeks) mice were used. Mice were housed under 12/12 hour light/dark cycles with ad libitum access to food and water. Mice were randomly allocated to different test groups. All experiments were approved by the University of Calgary Animal Care Committee and are in accordance with the guidelines of the Canadian Council on Animal Care.
Morphine sulfate (MS, PCCA) prepared in 0.9% sterile saline solution was injected i.p. into male C57BLJ6J (20-30g) mice. Mice received ascending doses of morphine (i.p.) at 8 hours intervals: day 1, 10mg/kg; day 2, 20 mg/kg; day 3, 30 mg/kg; day 4, 40mg/kg. On day 5, mice received a morning injection of morphine (50 mg/kg). A subset of mice received probenecid (15, 25, and 50 mg/kg i.p., Invitrogen) or Compound 1 (0.1, 0.5 and 1 mg/kg) 1 hour following morphine. Mice then received i.p. naloxone (2 mg/kg, naloxone hydrochloride dihydrate, Sigma) 2 hours following morphine to rapidly induce opioid withdrawal. Control mice received equivalent volumes of 0.9% saline or appropriate vehicle solution (0.1% DMSO in saline) and were challenged with naloxone on day 5. Withdrawal behaviors were then scored for 30 minutes post naloxone injection. Behaviors were scored for occurrence and then scaled for severity at 5-minute intervals. Behaviors that were assigned a standardized score between 0-3 depending on severity were jumping, headshakes, wet-dog shakes, chewing/licking, and teeth chattering. Behaviors that were scored 1 point for presence during a 5-minute interval include piloerection and tremors/twitching. The mice were then weighed following the 30 minutes, and the weight difference was assigned a standardized score dependent on the weight change between 0-3 as well. The scaled and present/absent signs were compiled over the 30 minutes to produce a composite withdrawal score.
All data are presented as the mean±standard error mean (s.e.m), and each circle represents an individual animal or experiment. Tests of statistical difference were performed with GraphPad Prism 6 using either an ordinary one-way ANOVA with posthoc Dunnet test, or a two-way ANOVA with post hoc Sidak test. Sample sizes are consistent with those reported in similar studies and provide sufficient power to detect changes with the appropriate statistical analysis. For all experiments, a criterion a level was set at 0.05.

C57BL/6J mice [3] = test: as above; assay type: in vivo; conditions: 0.5 mg/kg, 30 minutes before withdrawal

CCCN(CCC)S(=O)(=O)c1ccc(C(O)(C(F)(F)F)C(F)(F)F)cc1 [Compound 1, 4-(1,1,1,3,3,3-hexafluoro-2-hydroxypropan-2-yl)-N,N-dipropylbenzenesulfonamide]
Panx1 inhibitory potency relative to Probenecid (patch-clamp) [1]: more potent
Withdrawal behaviors (C57BL/6J mice [2]; 0.1 mg/kg): significantly attenuated
Withdrawal behaviors (C57BL/6J mice [2]; 0.5 mg/kg): significantly attenuated
Withdrawal behaviors (C57BL/6J mice [2]; 1 mg/kg): significantly attenuated
Effective dose, fold lower than probenecid (C57BL/6J mice [2]; 0.1-1 mg/kg vs probenecid 50 mg/kg): 50-500 fold
Withdrawal behaviors (C57BL/6J mice [3]): not effective
